The test system of assay [1] is MDS BM cells. As to the kind of experiment: Patient derived xenograft in NSG mice treated with ADP-heptose. In kind it is in vivo, human. The conditions noted are these: immunocompromised mice, after 28 days. On the procedure: NOD.Cg-Prkdc^scidIl2rg^tm1Wj1/SzJ (NSG)^75 were bred and maintained by the CCHMC Comprehensive Mouse Core. For patient derived xenografts, NSG mice (sub-lethally conditioned with 2 Gy of whole-body irradiation) were injected tail vein with healthy CD34+ cells (1×10^6 cells per mouse) and MDS patient cells (5×10^6 cells per mouse) in 200 μl of sterile PBS. Mice were then given sterile water or ADP-heptose (0.5 mg/kg) dissolved in sterile water at the indicated times. Mice were monitored for human engraftment in BM aspirates Briefly, 1×10^6 BM cells from each sample were incubated with huCD45 (Cat no. 555485, BDPharmingen) and huCD33 (Cat no. 555450, BDPharmingen) antibodies diluted 1:100 in a solution of PBS, 0.2% FBS for 30 minutes on ice. Cells were washed once with PBS, resuspended in PBS with 0.2% FBS, and immediately analyzed by flow cytometry.
On the technique in general: Xenograft models place foreign cells or tissue in a host animal.

The subject of assay [2] is healthy donor cells. The assay can be described thus: Immunoblot of NF-κB activation in CD34+ HSPCs. In kind it is cell-based, human. The method, then: (§1) Human CD34+ and MDS patient cells were maintained in StemSpan Serum-Free Expansion Media (Cat no. #09650, Stemcell Technologies) supplemented with 10 ng/ml of recombinant human stem cell factor (SCF) (Cat no. 300-07-50UG, PeproTech), recombinant human thrombopoietin (TPO) (Cat no. 300-18-50UG, PeproTech), recombinant human FLT3 ligand (FLT3L) (Cat no. 300-19-50UG, PeproTech), recombinant human interleukin-3 (IL-3) (Cat no. 200-03-50UG, PeproTech), and recombinant human interleukin-6 (IL-6) (Cat no. 200-06-50UG, PeproTech), as previously described. Human CD34+ cells from healthy individuals were obtained from the Yale Cooperative Center of Excellence in Hematology (YCCEH). […]
(§2) Protein concentration was evaluated by bicinchoninic acid (BCA) assay (Pierce, Cat #23225). SDS sample buffer was added to the lysates and the proteins were separated by SDS-polyacrylamide gel electrophoresis, transferred to PVDF or nitrocellulose membranes (BIO-RAD, Cat #1620112), and analyzed by immunoblotting. […] Membranes were visualized using ECL Western Blotting Substrate (Pierce, #32106) or SuperSignal West Femto Substrate (Thermo Scientific, #34096), imaged on a BIO-RAD ChemiDoc Touch Imaging system and analyzed with Image lab software 6.0.1 (Biorad) or Image J (22930834).
(In general: In western blotting, separated proteins are transferred to a membrane and probed.)

The subject of assay [3] is MDS CD34+ HSPCs. The assay can be described thus: Immunoblot of NF-κB activation in CD34+ HSPCs. It counts as cell-based, human. The method, then: as §1, §2

The results in this text go back to patent US20250314644A1, “METHODS COMPRISING DETECTION OF ADP-HEPTOSE” (CHILDREN'S HOSPITAL MEDICAL CENTER, priority 2023, published 2025).

`Nc1ncnc2c1ncn2[C@@H]1O[C@H](COP(=O)(O)OP(=O)(O)O[C@@H]2O[C@H]([C@H](O)CO)[C@@H](O)[C@H](O)[C@@H]2O)[C@@H](O)[C@H]1O` [ADP-heptose, ADP-D-glycero-β-D-manno-heptose]: in assay [1], the “expansion of xenografted MDS BM cells” value was “expanded”. For the same compound, the “TIFA-dependent activation of NF-κB (phosphorylated IKKα/β and RelA)” value in assay [2] is “not in healthy donor cells”; in assay [3], “able to induce TIFA-dependent activation of NF-κB”.
